The values that follow come from US20250136593A1, “DEGRADATION AGENT AND USE THEREOF” (HITGEN INC., priority 2021, published 2025).

The structures appear in SMILES notation. pIC50: −log10 of the molar value.

Assay [1] concerns the target T1, BCL-XL protein in MOLT-4 cells (Homo sapiens, UniProt Q07817).
T1 construct: host or cells: MOLT-4
Kind of assay: Degradation effect on BCL-XL protein in MOLT-4 cells by Western Blot. Format: cell-based. The note with it: 24 hours incubation, corrected by β-actin, read-out: DC50 concentration for BCL-XL protein degradation. As to the method: Experimental Example 6. Experiment to Evaluate Degradation Effect of Compound on BCL-XL Protein in MOLT-4 Cells by Western Blot Method
SDS-PAGE gel (4-12%) (Genscript), PMSF 100 mM (Biyotime), Cocktail 100× (Biyotime), P/S, RPMI medium modified (Hyclone), FBS (Corning), 4× loading buffer (Thermo), Bcl-xL (54H6) Rabbit mAb (CST), Anti-rabbit IgG-HRP (CST), Anti-β-actin-HRP (Abcam), RIPA (Biyotime), Tween-20, MOLT-4 cell (ATCC), BCA Protein Assay Kit (TIANGEN), Immobilon Western Chemilunescent HRP Substrate (Millipore).
1) Incubation of compound and cells: 1 mL of 10^6 MOLT-4 cells (culture medium: 89% RPMI, 10% FBS, 1% P/S) was inoculated in a 6-well cell culture plate, the compound was subjected to gradient dilution with DMSO, then the compound diluted in DMSO in gradient was diluted again into the MOLT-4 medium, and 1 mL of the diluted compound was directly added to the 6-well plate with the cultured cells and incubated for 24 hours.
2) Protein extraction: After the compound and the cells were co-incubated for 24 hours, the cells were collected and placed in a 1.5 mL centrifuge tube, washed twice with ice-cold PBS, the supernatant was discarded, then 150 μL of RIPA lysis buffer was added and lysis was carried out on ice for 30 minutes; then the cell lysate was centrifuged in a low-temperature centrifuge at 15,000 rpm for 10 minutes, and the supernatant was collected; and BCA Protein Assay Kit was used to quantify the protein in the resulting cell lysate supernatant. 4× loading buffer was added to the cell lysate supernatant and incubated at 85° C. for 10 minutes to obtain a sample. The obtained sample was stored in −80° C. refrigerator for the use on the next day. 20 μg of the sample was taken to perform SDS-Page and transmembrane, 5% skim milk was used to block the membrane for 1 hour, and then Bcl-xL (54H6) rabbit mAb, Anti-rabbit IgG-HRP, Anti-β-actin-HRP were used for incubation. After incubation, Immobilon Western Chemiluminescent HRP Substrate was used for color development, and a gel analyzer was used for analysis.
Analysis was performed with a grayscale analysis software, the amount of BCL-XL protein was corrected by the amount of β-actin, and then Graphpad 6 was used to calculate DC50.

The test system of assay [2] is MOLT-4 cells. The experiment in a line: Inhibitory activity on MOLT4 cell proliferation by Cell Titer-Glo method. The format is cell-based. The note with it: Homo sapiens, 72 hours incubation, read-out: IC50 concentration for inhibiting MOLT-4 cells. In general terms: ATP-based viability assays read luminescence as a measure of living cells.
Assay [3] has as its target ternary complex between BCL-XL and CRBN-DDB1 (Homo sapiens, UniProt Q07817+Q96SW2). Kind of assay: Compound-induced formation of ternary complex between BCL-XL and CRBN-DDB1 by AlphaLISA. Format: biochemical. Also noted: key: the number of + indicates the intensity of AlphaLISA peak signal; ++: the number of + indicates the intensity of AlphaLISA peak signal; +++: the number of + indicates the intensity of AlphaLISA peak signal; ++++: the number of + indicates the intensity of AlphaLISA peak signal; +++++: the number of + indicates the intensity of AlphaLISA peak signal. The following applies: peak signal; 60 nM Strep-BCL-XL and 60 nM His-CRBN/DDB1. As to the method: Experimental Example 4, Detection of Compound-Induced Formation of Ternary Complex Between BCL-XL and CRBN-DDB1 by AlphaLISA Method
Na2HPO4(Sigma), NaH2PO4(Sigma), sodium chloride (Sigma), Tween-20 (Sigma), AlphaLISA®Nikel Chelate Acceptor beads (PerkinElmer), Strep-Tactin® Alpha Donor beads (PerkinElmer), Assay plate (Corning), Strep-BCl-XL (HitGen), His-CRBN/DDB1 (HitGen).
DMSO was used to dissolve the dry powder of the test compound to obtain a 10.00 mM solution. The instrument ECHO was used to perform gradient dilution of the compound, which was then added to a 384-well reaction plate (Corning, Cat #3824), so that the final concentration of DMSO in the entire reaction system (10.0 μL) was less than 1%, and the same amount of DMSO was added and used as a control.
Strep-BCl-XL and His-CRBN/DDB1 proteins were dissolved in buffer (10 mM NaH2PO4, 40 mM Na2HPO4, 150 mM sodium chloride, 0.03% Tween20, pH=7.4) to obtain a protein mixture of 60 nM Strep-BCL-XL and 60 nM His-CRBN/DDB1, the protein mixture (5ul/well) was added to the 384-well plate in which the compound had been added, and incubated at room temperature for 30 minutes, then 5 μl of a detection mixture with 50 μg/ml AlphaLISA®Nikel Chelate Acceptor beads and 50 μg/ml Strep-Tactin® Alpha Donor beads was added, and incubated at room temperature for 2 hours; and then a microplate reader was used to detect AlphaLISA signal.
Fifth order polynomial or Sixth order polynomial in Polynomial of Graphpad 6.0 was used for data fitting.
For orientation: Bead proximity is the source of the signal in Alpha formats.

T1 sequence (Q07817 whole entry): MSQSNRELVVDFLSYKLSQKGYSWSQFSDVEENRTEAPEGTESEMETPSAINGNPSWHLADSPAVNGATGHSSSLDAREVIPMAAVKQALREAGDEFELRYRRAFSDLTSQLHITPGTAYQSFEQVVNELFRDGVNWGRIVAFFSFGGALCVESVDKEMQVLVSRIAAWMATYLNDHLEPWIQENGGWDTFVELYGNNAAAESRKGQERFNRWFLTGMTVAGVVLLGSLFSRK
Sequence of ternary complex between BCL-XL and CRBN-DDB1 (Q07817 whole entry): as above
Sequence of ternary complex between BCL-XL and CRBN-DDB1 (Q96SW2 whole entry): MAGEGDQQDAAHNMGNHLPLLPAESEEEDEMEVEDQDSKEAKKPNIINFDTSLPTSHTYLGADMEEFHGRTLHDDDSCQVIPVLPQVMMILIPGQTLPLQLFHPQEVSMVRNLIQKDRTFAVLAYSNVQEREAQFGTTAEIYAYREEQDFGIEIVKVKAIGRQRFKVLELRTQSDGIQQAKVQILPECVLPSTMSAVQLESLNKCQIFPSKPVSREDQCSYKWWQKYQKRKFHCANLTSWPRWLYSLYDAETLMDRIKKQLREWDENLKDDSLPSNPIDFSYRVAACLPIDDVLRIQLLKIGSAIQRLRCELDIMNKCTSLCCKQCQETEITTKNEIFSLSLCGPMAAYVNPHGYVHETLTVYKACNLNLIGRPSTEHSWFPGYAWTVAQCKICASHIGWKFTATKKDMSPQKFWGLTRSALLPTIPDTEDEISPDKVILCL
Sequence of ternary complex between BCL-XL and CRBN-DDB1 (Q16531 whole entry partner): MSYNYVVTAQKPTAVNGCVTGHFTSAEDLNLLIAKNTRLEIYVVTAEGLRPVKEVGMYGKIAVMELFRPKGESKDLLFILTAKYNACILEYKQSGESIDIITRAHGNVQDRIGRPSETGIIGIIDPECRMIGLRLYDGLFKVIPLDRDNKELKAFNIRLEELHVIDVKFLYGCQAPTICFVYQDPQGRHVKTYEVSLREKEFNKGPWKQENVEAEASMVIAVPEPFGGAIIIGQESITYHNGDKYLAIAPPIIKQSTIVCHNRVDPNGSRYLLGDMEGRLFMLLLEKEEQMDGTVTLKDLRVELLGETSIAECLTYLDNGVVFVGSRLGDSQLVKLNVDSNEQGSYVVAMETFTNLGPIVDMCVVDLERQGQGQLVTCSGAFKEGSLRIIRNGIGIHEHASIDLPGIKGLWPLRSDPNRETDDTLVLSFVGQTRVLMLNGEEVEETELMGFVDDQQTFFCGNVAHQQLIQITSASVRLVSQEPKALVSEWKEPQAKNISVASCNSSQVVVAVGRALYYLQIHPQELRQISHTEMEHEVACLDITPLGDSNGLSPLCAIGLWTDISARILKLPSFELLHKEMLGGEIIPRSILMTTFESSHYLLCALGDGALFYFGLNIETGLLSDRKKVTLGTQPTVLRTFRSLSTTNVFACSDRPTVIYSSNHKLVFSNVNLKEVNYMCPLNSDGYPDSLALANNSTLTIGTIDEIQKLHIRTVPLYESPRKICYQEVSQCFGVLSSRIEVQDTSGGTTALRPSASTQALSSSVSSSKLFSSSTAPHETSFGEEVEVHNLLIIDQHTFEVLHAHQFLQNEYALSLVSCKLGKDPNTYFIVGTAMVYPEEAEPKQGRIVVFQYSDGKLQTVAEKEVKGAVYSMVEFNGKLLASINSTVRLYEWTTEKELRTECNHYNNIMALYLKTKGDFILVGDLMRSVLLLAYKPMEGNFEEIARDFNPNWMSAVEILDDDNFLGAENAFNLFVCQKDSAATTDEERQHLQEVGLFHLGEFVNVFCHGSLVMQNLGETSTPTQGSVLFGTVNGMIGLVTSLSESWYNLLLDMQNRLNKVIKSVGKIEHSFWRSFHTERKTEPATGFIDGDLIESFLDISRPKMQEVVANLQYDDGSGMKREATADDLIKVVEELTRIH

Consider `O=C1CCC(N2Cc3c(CN4CC5(C4)CN(C4CCN(CC#Cc6ccc(/C=C/c7ccc(C(=O)N8CCc9cnc(-c%10cnc%11ccccc%11c%10)nc9C8)cc7)cc6)CC4)C5)cccc3C2=O)C(=O)N1` (stereo not drawn) [Compound F3B-3], for which the DC50 in assay [1] is below 1 µM. In addition, the pIC50 in assay [2] was 5.00 to 6.00. The “AlphaLISA signal (PROTAC ternary complex signal intensity)” value in assay [3] is “++”.
